We go through 18 molecules from patent publication US8492391B2, “Substituted 6-(2-hydroxybenzylamino)purine derivatives, their use as medicaments and compositions containing these derivatives” (Univerzita Palackeho V Olomouci, priority 2009, dated 2013).

For orientation: IC50 means the point on the concentration scale where inhibition reaches its midpoint.

Each structure is given as a SMILES string.

One assay deals with T1, CDK9/cyclin T (Homo sapiens, UniProt P50750).
T1 construct: made in house; host or cells: Sf9 insect cells, baculovirus co-infection
T1 sequence (P50750 whole entry, species assumed): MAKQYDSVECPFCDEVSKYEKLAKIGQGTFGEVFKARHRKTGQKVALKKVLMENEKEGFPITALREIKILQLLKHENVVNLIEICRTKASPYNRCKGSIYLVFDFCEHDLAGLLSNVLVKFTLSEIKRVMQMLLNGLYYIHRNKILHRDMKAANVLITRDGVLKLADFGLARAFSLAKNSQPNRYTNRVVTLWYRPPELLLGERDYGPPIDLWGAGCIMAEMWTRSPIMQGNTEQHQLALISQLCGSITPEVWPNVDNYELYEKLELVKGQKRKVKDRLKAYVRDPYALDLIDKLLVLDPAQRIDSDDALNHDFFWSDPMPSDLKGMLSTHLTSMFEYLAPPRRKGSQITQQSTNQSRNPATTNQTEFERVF
T1 sequence (O60563 whole entry partner, species assumed): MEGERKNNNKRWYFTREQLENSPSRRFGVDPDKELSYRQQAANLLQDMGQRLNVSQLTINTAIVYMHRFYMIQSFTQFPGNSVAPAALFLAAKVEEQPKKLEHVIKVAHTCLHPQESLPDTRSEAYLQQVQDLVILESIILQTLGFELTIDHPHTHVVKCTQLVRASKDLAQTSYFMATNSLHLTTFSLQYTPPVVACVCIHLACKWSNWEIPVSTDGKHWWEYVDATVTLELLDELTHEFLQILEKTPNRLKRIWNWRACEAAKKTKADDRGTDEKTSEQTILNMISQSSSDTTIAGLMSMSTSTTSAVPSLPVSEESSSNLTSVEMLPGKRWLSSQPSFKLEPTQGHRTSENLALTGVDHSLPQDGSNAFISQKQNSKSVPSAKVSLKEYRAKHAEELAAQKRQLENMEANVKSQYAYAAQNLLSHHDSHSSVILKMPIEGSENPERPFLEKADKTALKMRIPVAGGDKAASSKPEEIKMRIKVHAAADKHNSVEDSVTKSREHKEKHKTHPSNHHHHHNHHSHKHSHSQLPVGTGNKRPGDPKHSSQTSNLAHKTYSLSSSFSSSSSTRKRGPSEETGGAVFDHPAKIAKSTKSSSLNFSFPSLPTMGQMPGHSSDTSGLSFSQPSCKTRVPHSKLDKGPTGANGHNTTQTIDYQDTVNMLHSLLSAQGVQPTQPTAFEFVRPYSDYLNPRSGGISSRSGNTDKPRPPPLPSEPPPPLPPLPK
Description: CDK9/cyclin T kinase inhibition assay. The format is biochemical. The note with it: kinase inhibitory activity, 15 μM ATP, (YSPTSPS)3 peptide substrate. Here is the method: (§1) Selected compounds were tested for CDK1/cyclin B, CDK2/cyclin E, CDK5/p25, CDK7/cyclin H and CDK9/cyclin T inhibitory activity to determine the basic relationships between their structure and the inhibitory activity. Cdk/cyclin complexes were expressed in Sf9 cells co-infected with appropriate baculoviral construct. The cells were harvested 70 hours post infection in lysis buffer (50 mM Tris pH 7.4, 150 mM NaCl, 5 mM EDTA, 20 mM NaF, 1% Tween 20, protease inhibitors) for 30 min on ice and the soluble fraction was recovered by centrifugation at 14.000 g for […]. The protein extract was stored at −80° C. until use. The final point test system for kinase activity measurement was used to carry out experiments on the kinetics under linear conditions. […] ATP and tested compound in a final volume of 20 μl, all in reaction buffer: 50 mM Hepes pH 7.4, 10 mM MgCl2, 5 mM EGTA, 10 mM 2-glycerolphosphate, 1 mM NaF, 1 mM DTT and protease inhibitors. After 30 min, the incubations were stopped by adding 5% H3PO4 and then the proteins were separated by phosphocellulose binding. The measurement of kinase inhibition employed the digital imaging analyzer BAS 1800. The kinase activity was expressed as a percentage of maximum activity and the IC50 value was determined by graphic analysis. The kinase activity is expressed as a percentage of maximum activity (FIG. 1).
As to `Cn1cnc2c(NCc3cc(Cl)ccc3O)nc(NC3CCCCC3N)nc21` (stereo not drawn) [Compound 1], half-maximal inhibition (IC50) required 0.18 µM.

The molecule `Cn1cnc2c(NCc3cc(Cl)ccc3O)nc(NC3CCC(N)CC3)nc21` (stereo not drawn) [Compound 2] showed an IC50 of 0.15 µM.

For the molecule `CCC(CO)Nc1nc(NCc2cc(Cl)ccc2O)c2ncn(C)c2n1` (stereo not drawn) [Compound 3], the IC50 was 0.12 µM.

For the molecule `CC(C)C(CO)Nc1nc(NCc2cc(Cl)ccc2O)c2ncn(C)c2n1` (stereo not drawn) [Compound 4], half-maximal inhibition (IC50) required 0.08 µM.

With `Cn1cnc2c(NCc3cc(F)ccc3O)nc(NC3CCCCC3N)nc21` (stereo not drawn) [Compound 7], 0.15 µM corresponded to half-maximal inhibition (IC50).

In the case of `Cn1cnc2c(NCc3cc(F)ccc3O)nc(NC3CCC(N)CC3)nc21` (stereo not drawn) [Compound 8], the IC50 came to 0.12 µM.

`CCC(CO)Nc1nc(NCc2cc(F)ccc2O)c2ncn(C)c2n1` (stereo not drawn) [Compound 9] registered an IC50 of 0.17 µM.

In turn, `COc1cccc(CNc2nc(NC3CCCCC3N)nc3c2ncn3C)c1O` (stereo not drawn) [Compound 31] yielded an IC50 of 0.19 µM.

`COc1cccc(CNc2nc(NC3CCC(N)CC3)nc3c2ncn3C)c1O` (stereo not drawn) [Compound 32] yielded an IC50 of 0.18 µM.

`CCC(CO)Nc1nc(NCc2cccc(OC)c2O)c2ncn(C)c2n1` (stereo not drawn) [Compound 34] returned an IC50 of 0.16 µM.

The molecule `CCn1cnc2c(NCc3cc(Cl)ccc3O)nc(NC3CCC(N)CC3)nc21` (stereo not drawn) [Compound 48] registered an IC50 of 0.09 µM.

Molecule `CCC(CO)Nc1nc(NCc2cc(Cl)ccc2O)c2ncn(CC)c2n1` (stereo not drawn) [Compound 50] gave an IC50 of 0.12 µM.

In turn, `CCn1cnc2c(NCc3cc(F)ccc3O)nc(NC3CCC(N)CC3)nc21` (stereo not drawn) [Compound 51] gave an IC50 of 0.1 µM.

`CCn1cnc2c(NCc3cc(C)ccc3O)nc(NC3CCCCC3N)nc21` (stereo not drawn) [Compound 59] registered a concentration for half-maximal inhibition (IC50) of 0.05 µM.

Molecule `CCn1cnc2c(NCc3cccc(OC)c3O)nc(NC3CCC(N)CC3)nc21` (stereo not drawn) [Compound 70] registered an IC50 of 0.07 µM.

Take `CCC(CO)Nc1nc(NCc2ccc(OC)cc2O)c2ncn(CC)c2n1` (stereo not drawn) [Compound 73]: the IC50 came out at 0.09 µM.

`CC(C)n1cnc2c(NCc3cc(Cl)ccc3O)nc(NC3CCCCC3N)nc21` (stereo not drawn) [Compound 76]: 0.03 µM corresponded to half-maximal inhibition (IC50).

`CC(C)n1cnc2c(NCc3cc(Cl)ccc3O)nc(NC3CCC(N)CC3)nc21` (stereo not drawn) [Compound 77] gave an IC50 of 0.01 µM.

The next assay has as its target T2, CDK2/cyclin E (Homo sapiens, UniProt P24941).
T2 construct: made in house; host or cells: Sf9 insect cells, baculovirus co-infection
Description: CDK2/cyclin E kinase inhibition assay. The note with it: kinase inhibitory activity, 15 μM ATP, histone substrate. The format is biochemical. As for the experimental part: as §1
In turn, `Cn1cnc2c(NCc3cc(Cl)ccc3O)nc(NC3CCCCC3N)nc21` (stereo not drawn) [Compound 1] came in with an IC50 of 0.29 µM.

With `Cn1cnc2c(NCc3cc(Cl)ccc3O)nc(NC3CCC(N)CC3)nc21` (stereo not drawn) [Compound 2], the IC50 was found to be 0.27 µM.

`CCC(CO)Nc1nc(NCc2cc(Cl)ccc2O)c2ncn(C)c2n1` (stereo not drawn) [Compound 3] showed an IC50 of 0.3 µM.

The molecule `CC(C)C(CO)Nc1nc(NCc2cc(Cl)ccc2O)c2ncn(C)c2n1` (stereo not drawn) [Compound 4] gave a concentration for half-maximal inhibition (IC50) of 0.25 µM.

Molecule `Cn1cnc2c(NCc3cc(F)ccc3O)nc(NC3CCCCC3N)nc21` (stereo not drawn) [Compound 7] returned a half-inhibitory concentration (IC50) of 0.26 µM.

Take `Cn1cnc2c(NCc3cc(F)ccc3O)nc(NC3CCC(N)CC3)nc21` (stereo not drawn) [Compound 8]: it took 0.25 µM to reach half-maximal inhibition (IC50).

Molecule `CCC(CO)Nc1nc(NCc2cc(F)ccc2O)c2ncn(C)c2n1` (stereo not drawn) [Compound 9] gave an IC50 of 0.3 µM.

Molecule `COc1cccc(CNc2nc(NC3CCCCC3N)nc3c2ncn3C)c1O` (stereo not drawn) [Compound 31] showed an IC50 of 0.26 µM.

For the molecule `COc1cccc(CNc2nc(NC3CCC(N)CC3)nc3c2ncn3C)c1O` (stereo not drawn) [Compound 32], half-maximal inhibition (IC50) was put at 0.22 µM.

In turn, `CCC(CO)Nc1nc(NCc2cccc(OC)c2O)c2ncn(C)c2n1` (stereo not drawn) [Compound 34] displayed an IC50 of 0.27 µM.

Consider `CCn1cnc2c(NCc3cc(Cl)ccc3O)nc(NC3CCC(N)CC3)nc21` (stereo not drawn) [Compound 48], for which the IC50 worked out at 0.14 µM.

Molecule `CCC(CO)Nc1nc(NCc2cc(Cl)ccc2O)c2ncn(CC)c2n1` (stereo not drawn) [Compound 50] came in with an IC50 of 0.13 µM.

`CCn1cnc2c(NCc3cc(F)ccc3O)nc(NC3CCC(N)CC3)nc21` (stereo not drawn) [Compound 51]: half-maximal inhibition (IC50) required 0.16 µM.

For the molecule `CCn1cnc2c(NCc3cc(C)ccc3O)nc(NC3CCCCC3N)nc21` (stereo not drawn) [Compound 59], 0.12 µM corresponded to half-maximal inhibition (IC50).

`CCn1cnc2c(NCc3cccc(OC)c3O)nc(NC3CCC(N)CC3)nc21` (stereo not drawn) [Compound 70] returned an IC50 of 0.11 µM.

Molecule `CCC(CO)Nc1nc(NCc2ccc(OC)cc2O)c2ncn(CC)c2n1` (stereo not drawn) [Compound 73] returned an IC50 of 0.17 µM.

Molecule `CC(C)n1cnc2c(NCc3cc(Cl)ccc3O)nc(NC3CCCCC3N)nc21` (stereo not drawn) [Compound 76] gave an IC50 of 0.05 µM.

`CC(C)n1cnc2c(NCc3cc(Cl)ccc3O)nc(NC3CCC(N)CC3)nc21` (stereo not drawn) [Compound 77]: the IC50 amounted to 0.04 µM.

Another assay has as its system K562 (human chronic myelogenous leukaemia). Nature of the assay: Calcein AM cytotoxicity assay, K562. The note with it: Homo sapiens, read-out: Cytotoxic activity IC50 (μM) K562. Format: cell-based. From the text:
(§2) Cytotoxicity of the compounds is the major property determining their anticancer effect in vivo. One of the parameters used, as the basis for cytotoxicity assays, is the metabolic activity of viable cells. For example, a microtiter assay, which uses the Calcein AM, is now widely used to quantitate cell proliferation and cytotoxicity. For instance, this assay is used in drug screening programs and in chemosensitivity testing. Because only metabolically active cells cleave Calcein AM, these assays detect viable cells exclusively. The quantity of cleaved Calcein AM corresponds to the number of vital cells in the culture. We have been using the following cell lines: MCF7 (human breast adenocarcinoma), K562 (human chronic myelogenous leukaemia), HOS (human osteogenic sarcoma), HeLa (human cervical carcinoma), HL 60 (human promyelocytic leukaemia), G 361 (human malignant melanoma), CEM (human lymphoblastoid leukaemia). All cell lines were grown in DMEM medium (Gibco BRL) supplemented with 10% (v/v) fetal bovine serum and L-glutamine and maintained at 37° C. in a humidified atmosphere with 5% CO2. For cytotoxicity assays, 10^4 cells were seeded into each well of 96 well plate, allowed to stabilize for at least 2 h and then tested compounds were added at various concentrations ranging from 100 to 0.1 μM in triplicates. Three days after drug addition Calcein AM solution (Molecular Probes) was added and let to enter the cells for 1 hour. Fluorescence of viable cells was quantified using Fluoroskan Ascent (Microsystems).
`Cn1cnc2c(NCc3cc(Cl)ccc3O)nc(NC3CCCCC3N)nc21` (stereo not drawn) [Compound 1]: the IC50 is 78 µM.

As for `Cn1cnc2c(NCc3cc(Cl)ccc3O)nc(NC3CCC(N)CC3)nc21` (stereo not drawn) [Compound 2], the 50% inhibitory concentration (IC50) is 82 µM.

Regarding `CCC(CO)Nc1nc(NCc2cc(Cl)ccc2O)c2ncn(C)c2n1` (stereo not drawn) [Compound 3], the IC50 is 84 µM.

As for `Cn1cnc2c(NCc3cc(F)ccc3O)nc(NC3CCCCC3N)nc21` (stereo not drawn) [Compound 7], the IC50 was 61 µM.

Regarding `Cn1cnc2c(NCc3cc(F)ccc3O)nc(NC3CCC(N)CC3)nc21` (stereo not drawn) [Compound 8], the IC50 is 64 µM.

`CCC(CO)Nc1nc(NCc2cc(F)ccc2O)c2ncn(C)c2n1` (stereo not drawn) [Compound 9]: the IC50 was 67 µM.

With `COc1cccc(CNc2nc(NC3CCCCC3N)nc3c2ncn3C)c1O` (stereo not drawn) [Compound 31], the concentration for half-maximal inhibition (IC50) was 60 µM.

Regarding `CCC(CO)Nc1nc(NCc2cc(Cl)ccc2O)c2ncn(CC)c2n1` (stereo not drawn) [Compound 50], the IC50 was 58 µM.

Regarding `CCn1cnc2c(NCc3cc(F)ccc3O)nc(NC3CCC(N)CC3)nc21` (stereo not drawn) [Compound 51], the IC50 was 52 µM.

Regarding `CC(C)n1cnc2c(NCc3cc(Cl)ccc3O)nc(NC3CCCCC3N)nc21` (stereo not drawn) [Compound 76], the IC50 is 9.9 µM.

Another assay deals with HOS (human osteogenic sarcoma). Description: Calcein AM cytotoxicity assay, HOS. The note with it: Homo sapiens, read-out: Cytotoxic activity IC50 (μM) HOS. The format is cell-based.
Description: as §2
Regarding `Cn1cnc2c(NCc3cc(Cl)ccc3O)nc(NC3CCCCC3N)nc21` (stereo not drawn) [Compound 1], the IC50 is 65 µM.

As for `Cn1cnc2c(NCc3cc(Cl)ccc3O)nc(NC3CCC(N)CC3)nc21` (stereo not drawn) [Compound 2], the IC50 is 64 µM.

For the molecule `CCC(CO)Nc1nc(NCc2cc(Cl)ccc2O)c2ncn(C)c2n1` (stereo not drawn) [Compound 3], the IC50 is 71 µM.

In the case of `Cn1cnc2c(NCc3cc(F)ccc3O)nc(NC3CCCCC3N)nc21` (stereo not drawn) [Compound 7], the IC50 is 47 µM.

On to `Cn1cnc2c(NCc3cc(F)ccc3O)nc(NC3CCC(N)CC3)nc21` (stereo not drawn) [Compound 8], for which the IC50 is 50 µM.

Take `CCC(CO)Nc1nc(NCc2cc(F)ccc2O)c2ncn(C)c2n1` (stereo not drawn) [Compound 9]: the IC50 is 53 µM.

For `COc1cccc(CNc2nc(NC3CCCCC3N)nc3c2ncn3C)c1O` (stereo not drawn) [Compound 31], the IC50 was 45 µM.

For the molecule `CCC(CO)Nc1nc(NCc2cc(Cl)ccc2O)c2ncn(CC)c2n1` (stereo not drawn) [Compound 50], the IC50 is 44 µM.

Consider `CCn1cnc2c(NCc3cc(F)ccc3O)nc(NC3CCC(N)CC3)nc21` (stereo not drawn) [Compound 51], for which the IC50 was 40 µM.

For the molecule `CC(C)n1cnc2c(NCc3cc(Cl)ccc3O)nc(NC3CCCCC3N)nc21` (stereo not drawn) [Compound 76], the IC50 was 4.1 µM.

A further assay concerns MCF7 (human breast adenocarcinoma). Nature of the assay: Calcein AM cytotoxicity assay, MCF7. The format is cell-based. The note with it: Homo sapiens, MCF7, read-out: Cytotoxic activity IC50 (μM) MCF7.
Description: as §2
On to `Cn1cnc2c(NCc3cc(Cl)ccc3O)nc(NC3CCCCC3N)nc21` (stereo not drawn) [Compound 1], for which the IC50 was 43 µM.

On to `Cn1cnc2c(NCc3cc(Cl)ccc3O)nc(NC3CCC(N)CC3)nc21` (stereo not drawn) [Compound 2], for which the IC50 was 46 µM.

`CCC(CO)Nc1nc(NCc2cc(Cl)ccc2O)c2ncn(C)c2n1` (stereo not drawn) [Compound 3]: the IC50 was 55 µM.

As to `Cn1cnc2c(NCc3cc(F)ccc3O)nc(NC3CCCCC3N)nc21` (stereo not drawn) [Compound 7], the IC50 was 35 µM.

As for `Cn1cnc2c(NCc3cc(F)ccc3O)nc(NC3CCC(N)CC3)nc21` (stereo not drawn) [Compound 8], the IC50 is 39 µM.

With `CCC(CO)Nc1nc(NCc2cc(F)ccc2O)c2ncn(C)c2n1` (stereo not drawn) [Compound 9], the half-maximal inhibitory concentration (IC50) is 42 µM.

Take `COc1cccc(CNc2nc(NC3CCCCC3N)nc3c2ncn3C)c1O` (stereo not drawn) [Compound 31]: the concentration for half-maximal inhibition (IC50) was 36 µM.

Consider `CCC(CO)Nc1nc(NCc2cc(Cl)ccc2O)c2ncn(CC)c2n1` (stereo not drawn) [Compound 50], for which the IC50 was 38 µM.

`CCn1cnc2c(NCc3cc(F)ccc3O)nc(NC3CCC(N)CC3)nc21` (stereo not drawn) [Compound 51]: the IC50 was 32 µM.

Regarding `CC(C)n1cnc2c(NCc3cc(Cl)ccc3O)nc(NC3CCCCC3N)nc21` (stereo not drawn) [Compound 76], the IC50 is 2.8 µM.
